Tests used:
H3 receptor = biological target: T1, H3 receptor (Cavia porcellus, UniProt Q9JI35); assay: H3 Receptor Binding Assay (guinea pig brain membranes, [3H]R-α-methylhistamine or [3H]-N-methylhistamine)
T1 construct: The source of the H3 receptors in this experiment was guinea pig brain; from tissue; host or cells: guinea pig brain membranes
Procedure: Procedure for H3 Receptor Binding Assay
The source of the H3 receptors in this experiment was guinea pig brain. The animals used weighed 400-600 g. The tissue was homogenized using a Polytron in a solution of 50 mM Tris, pH 7.5. The final concentration of tissue in the homogenization buffer was 10% w/v. The homogenates were centrifuged at 1000×g for 10 min. in order to remove clumps of tissue and debris. The resulting supernatants were then centrifuged at 50,000×g for 20 min. in order to sediment the membranes, which were next washed 3 times in homogenization buffer (50,000×g for 20 min. each). The membranes were frozen and stored at -70° C. until needed.
All compounds to be tested were dissolved in DMSO and then diluted into the binding buffer (50 mM Tris, pH 7.5) such that the final concentration was 2 μg/mL with 0.1% DMSO. Membranes were then added (400 μg of protein) to the reaction tubes. The reaction was started by the addition of 3 nM [^3 H]R-α-methylhistamine (8.8 Ci/mmol) or [^3 H]-N-methylhistamine (80 Ci/mmol) and incubated at 30° C. for 30 min. Bound ligand was separated from unbound ligand by filtration, and the amount of radioactive ligand bound to the membranes was quantitated by liquid scintillation spectrometry. All incubations were performed in duplicate and the standard error was less than 10% in all instances.

rat = conditions: Clapham et al. 1993; cited from earlier work
mice = conditions: Yokoyama et al. 1993; cited from earlier work
[1] = 3 nM radioligand, 30° C., 30 min

T1 sequence (Q9JI35 whole entry): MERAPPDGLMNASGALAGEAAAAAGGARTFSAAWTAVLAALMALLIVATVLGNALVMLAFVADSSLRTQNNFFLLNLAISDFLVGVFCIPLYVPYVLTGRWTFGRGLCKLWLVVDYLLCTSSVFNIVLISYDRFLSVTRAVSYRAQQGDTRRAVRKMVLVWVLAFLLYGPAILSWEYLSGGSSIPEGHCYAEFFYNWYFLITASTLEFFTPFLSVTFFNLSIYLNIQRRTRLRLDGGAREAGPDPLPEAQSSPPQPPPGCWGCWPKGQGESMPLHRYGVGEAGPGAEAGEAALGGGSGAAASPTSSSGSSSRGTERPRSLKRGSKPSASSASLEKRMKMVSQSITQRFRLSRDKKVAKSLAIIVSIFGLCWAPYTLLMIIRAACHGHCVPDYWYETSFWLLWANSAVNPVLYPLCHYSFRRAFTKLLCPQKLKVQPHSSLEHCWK

Row | SMILES | Ki (H3 receptor; [1]) | also measured
1 | O=C(NCCCCc1c[nH]cn1)C1CN(Cc2ccc(Cl)cc2)CCN1Cc1ccc(Cl)cc1 (stereo not drawn) | 20 nM | –
2 | CCOC(=O)C1CN(Cc2ccc(Cl)cc2)CCN1CCCCc1c[nH]cn1 (stereo not drawn) | – | Ki (H3 receptor; unit given as mM): 26 nM
3 | CCOC(=O)C1CNCCN1CCCCc1c[nH]cn1 (stereo not drawn) | 32 nM | –
4 | CCOC(=O)C1CN(CCCCc2c[nH]cn2)CCN1Cc1ccc(Cl)cc1 (stereo not drawn) | 46 nM | –
5 | O=C(NCCCCc1c[nH]cn1)C1CN(Cc2ccc(Cl)cc2)CCN1 (stereo not drawn) | 46 nM | –
6 | O=C(NCCCCc1c[nH]cn1)C1CNCCN1Cc1ccc(Cl)cc1 (stereo not drawn) | 38 nM | –
7 | O=C(Nc1cccc(Cl)c1)N1CCN(CCCCc2c[nH]cn2)CC1 | 6 nM | –
8 | O=C(/C=C/c1cccnc1)N1CCN(CCCCc2c[nH]cn2)CC1 | 25 nM | –
9 | O=C(NCCCCCc1c[nH]cn1)C1CNCCN1 (stereo not drawn) | 39 nM | –
10 | Clc1ccc(CN2CCN(Cc3ccc(Cl)cc3)C(CCc3c[nH]cn3)C2)cc1 (stereo not drawn) | 45 nM | –
11 | O=C(/C=C/c1ccccc1)N1CCN(CCCCc2c[nH]cn2)CC1 | 6 nM | –
12 | O=C(Nc1ccc(C(F)(F)F)cc1)N1CCN(CCCCc2c[nH]cn2)CC1 | 14 nM | –
13 | S=C(NC1CCCCC1)N1CCC(c2cnc[nH]2)CC1 [thioperamide] | – | short-term memory and reversal learning (rat): can improve short-term memory and reversal learning in the rat; duration of each phase of convulsion (mice): decreased the duration of each phase of convulsion; electroconvulsive threshold (mice): raised the electroconvulsive threshold

— patent US6211182A, “Imidazole compounds substituted with a six or seven membered heterocyclic ring containing two nitrogen atoms” (Schering Corporation, priority 1999, dated 2001)
